Measurements as given in patent publication US12054509B2, “Antimicrobial compounds, compositions, and uses thereof” (Lakewood Amedex, Inc., priority 2017, dated 2024).

Columns and labels:
Solubility = type: physicochemical; conditions: unit inferred
P. aeruginosa K2732 = test: Bacterial cytological profiling (Example 6), P. aeruginosa; type: cell-based;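 for effect on cell envelope: tested at 1 0.5 and 0.25 times MIC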
Experimental: (§1) This bacterial cytological profiling (BCP) study uses methods and materials described previously by Nonejuie, P., Burkart, M., Poglianoa, K., Pogiano, J. (2013). Bacterial cytological profiling rapidly identifies the cellular pathways targeted by antibacterial molecules. Proc. Natl. Acad. Sci. U.S.A. 110(40):16169-16174. doi: 10.1073/pnas.1311066110.
(§2) Wild type strains of E. coli ATCC 25922 or P. aeruginosa K2732 are grown in rich media (unbuffered 2× Lysogeny broth [LB]) at 30 C to an OD600˜0.4. These cultures are then split and each sample treated with the appropriate concentration of Nu-8 in unbuffered or buffered LB (final mixture OD600˜0.1). Cells exposed without Nu-8 are buffered to pH 4 with phosphoric acid.
(§3) The BCP is performed in LB media buffered to pH 4. The minimum inhibitory concentration (MIC) is measured for Nu-3, Nu-4, Nu-5, and Nu-8 against each bacterial strain. As one of ordinary skill in the art understands, minimum inhibitory concentrations are the lowest concentration of an antimicrobial that will inhibit the visible growth of a microorganism after overnight incubation. […] Cellular viability is assayed at three time points (5 minutes and 4 and 24 h following the onset of treatment).
(§4) For imaging E. coli, treated cells are stained with 1 μg/Ml FM4-64, 2 μg/mL DAPI, and 0.5 μM SYTOXGreen (Molecular Probes/Invitrogen). P. aeruginosa samples are stained 0.5 μM SYTOX Green, 28 μg/mL DAPI, and 4.5 μg/mL FM 4-64. Cells are transferred to an agarose pad (20% LB, 1% agarose) for imaging as described in Pogliano, J., Osborne, N., Sharp, M. D., Abanes-De Mello, A., Perez, A., Sun, Y.-L. and Pogliano, K. (1999), A vital stain for studying membrane dynamics in bacteria: a novel mechanism controlling septation during Bacillus subtilis sporulation. Molecular Microbiology, 31: 1149-1159. doi:10.1046/j.1365-2958.1999.01255.x.

[1] = system: Staphylococcus aureus (MRSA only); test: MIC against a single isolate (Example 26); type: cell-based; conditions: single isolate, read-out: S. aureus MIC
Experimental: Bacterial strains evaluated in this study include Escherichia coli, Klebsiella spp, Serratia marcescens, Proteus mirabilis/vulgaris, Citrobacter spp, Providencia spp, Morganella morganii, Pseudomonas aeruginosa, Staphylococcus aureus (MRSA only), and Enterococcus faecalis. Nu-8 test solutions are adjusted to pH 3.5 with citric acid, and MIC is evaluated per the CLSI methods in Mueller-Hinton broth supplemented accordingly to facilitate growth of specific strains.
MIC was determined as per Example 9 using LAI-101, LAI-102, Nu-10, LAI-105, LAI-106, Nu-3, and Nu-8 against a single isolate of Escherichia coli. Pseudomonas aeruginosa, Staphylococcus aureus (MRSA only), and Candida Albicans. For all microbe species, the LAI-101, LAI-102, Nu-10, LAI-105, and LAI-106 all perform at least as well as, and in many experiments better than, Nu-8 and Nu-3, which are both already quite active compounds.

E. coli ATCC 25922 = test: Bacterial cytological profiling (Example 6), E. coli; type: cell-based;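 for effect on cell envelope: tested at 1 0.5 and 0.25 times MIC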
Experimental: as §1, §2, §3, §4

E. coli ATCC25922 = test: Urinary tract infection model in Sprague-Dawley rats, transurethral treatment (Example 12); type: in vivo; conditions: 60 min
Experimental: Female Sprague-Dawley rats (n=6/group) are intraurethrally infected with the pre determined inoculum size of E. coli. At the specified time following infection with (depending on the in vivo growth curve), the animals are anaesthetized (ketamine/xylazine) and treated by transurethral administration with neutral saline (group 1), saline pH 3.5 adjusted with phosphoric acid (group 2), test compound Nu-8 pH 3.5 at 103 and 207 mg/kg (groups 3 and 4, respectively). When adjusting pH, the volume of phosphoric acid added are monitored and the final concentration of the pH adjusted dose solution are subsequently determined. The goal is to have the final concentration after pH adjustment within 10% of the desired dose so the final concentration after pH adjustment are reported. Volume of administration will be 300 μL. TABLE 10 (Animal Challenge and Treatment Schedule) summarizes the study groups.
Two hours prior to each infection animals are water deprived. Each animal is infected twice with 24 hrs difference by transurethral administration of 300 μL of bacterial suspension under light ketamine and xylazine anaesthesia. Prior to infection, urine is evacuated by digital pressure, cannula is gently inserted into the bladder via urethra and 300 μL of bacterial suspension is inserted into the bladder. […]

[2] = system: wild type E. coli (ATCC 25922); test: Bacterial cytological profiling at pH 4, 5.5, 7 (Example 8), E. coli; type: cell-based; conditions: pH 5.5 and 7
Experimental: as §1, with “investigation” for “study”
For viable cell counts, cells are grown to OD600≈0.4 and diluted 1:1 into buffered or unbuffered media containing various compound concentrations. Samples are then collected and serially diluted (1:10) on a 96 well plate. Five microliters from each well are spotted on LB plates, incubated at 30° C., and viable cells are counted the next day.
Samples are collected at 10, 30, 120, and 240 min of exposure for viable cell count and imaging. For imaging, E. coli and S. aureus 200 μL of treated cells per time point are stained with 0.8 μg/mL FM4-64, 1.5 μg/mL DAPI, and 0.4 μM SYTOXGreen (Molecular Probes/Invitrogen). P. aeruginosa samples are stained 0.4 μM SYTOX Green, 28 μg/mL DAN, and 1 μg/mL FM 4-64. Cells are transferred to an agarose pad (20% LB, 1% agarose) for imaging.
For Nu-3 and Nu-8 stocks (at pH 4, 5.5 and 7), stock concentration is 500 mg/mL. For pH 4, the stocks are prepared by dissolving Nu-3 in 25 mM citrate buffer and Nu-8 in 350 mM citric acid. For pH 5.5, the stocks are prepared by dissolving Nu-3 in 25 mM citric-phosphate and Nu-8 in 25 mM critic. For pH 7, the stocks are prepared by dissolving Nu-3 and Nu-8 in 25 mM Sorensen phosphate buffer. 2×LB (lysogeny broth) solutions are prepared with 50 mM citrate buffer for pH 4, 50 mM citrate-phosphate buffer for pH 5.5, and 50 mM Sorensen phosphate buffer for pH 7.

[3] = system: Streptococcus pneumoniae (PRSP); test: MIC at pH 3.5 (CLSI, Mueller-Hinton broth); type: cell-based

CCCCOP(=O)(O)OC[C@H]1O[C@@H](n2ccc(N)nc2=O)C[C@@H]1OP(=O)(O)OCCCC [Nu-8, sodium ((2R,3S,5R)-5-(4-amino-2-oxopyrimidin-1(2H)-yl)-3-((butoxyoxidophosphor-yl)oxy)tetrahydrofuran-2-yl)methyl butyl phosphate]
solubility (Solubility): 137 mg/mL | effect on cell envelope (P. aeruginosa K2732; BCP): affect the cell envelope | cell membrane permeability (P. aeruginosa K2732; buffered pH 4 or unbuffered LB): increase cell membrane permeability | MIC [1]: > 50 mg/mL | effect on cell envelope (E. coli ATCC 25922; BCP): affect the cell envelope | cell membrane permeability (E. coli ATCC 25922; buffered pH 4 or unbuffered LB): increase cell membrane permeability | DNA condensation (E. coli ATCC 25922; higher treatment concentrations, buffered pH 4): causes DNA condensation | mean CFU per mL of bladder tissue (tissue plus urine) (E. coli ATCC25922; 103 mg/kg pH 3.5 transurethral): 5.53 Log 10 CFUs/mL bladder tissue | mean CFU per mL of bladder tissue (tissue plus urine) (E. coli ATCC25922; 207 mg/kg pH 3.5 transurethral): 4.60 Log 10 CFUs/mL bladder tissue | effect on cell permeability, viability and growth [2]: alters E. coli cell permeability and reduces cell viability and growth | MIC [3]: 9.38 to 18.8 mg/mL
